Laboratory results as given in patent US9663764B2, “Generation of cardiomyocytes from human pluripotent stem cells” (Wisconsin Alumni Research Foundation, priority 2011, dated 2017).

Test system: 19-9-11 iPSCs
Experiment: Cardiac directed differentiation via small molecules on Matrigel, cTnT/MF20 flow cytometry
Assay type: cell-based, human
Conditions: 12 μM CH treatment alone, after 15 days
Procedure: cardiac directed differentiation via small molecules: Cells were dissociated and plated as described in the Activin/BMP4 protocol. When hPS cells maintained on Matrigel® or Synthemax plates achieved confluence, cells were treated with CH in RPMI/B27-insulin for 24 hr (day 0 to day 1). The medium was changed to RPMI/B27-insulin, followed by 2 μg/ml dox treatment at different times between day 1 and day 5 for transgenic cell lines. For genetically unmodified lines, 5 μM IWP2 (Tocris) or IWP4 (Stemgent) was added at day 3 and removed during the day 5 medium change. Cells were maintained in the RPMI/B27 starting from day 7, with the medium changed every 3 days.
Flow Cytometry: Cells were dissociated into single cells and then fixed with 1% paraformaldehyde for 20 min at room temperature and stained with primary and secondary antibodies in PBS plus 0.1% Triton X-100 and 0.5% BSA. For the cell proliferation assay, a 17-hour pulse of BrdU was performed to identify dividing cardiomyocytes (Zhang et al., Circ. Res. 104, e30-41 (2009)). Data were collected on a FACSCaliber flow cytometer (Beckton Dickinson) and analyzed using FlowJo.
While shRNA inhibition of β-catenin provides specific and facile temporal regulation of canonical Wnt signaling, this method requires genetic modification of the hPS cell line which limits its potential clinical utility. The inventors next used the mechanistic insight these modified lines provided regarding the sufficiency of canonical Wnt signaling in cardiomyogenesis to develop a completely defined, growth factor free method of efficiently generating cardiomyocytes from unmodified hPS cell lines using small molecules. First, 19-9-11 iPSCs were maintained in mTeSR1 on Matrigel® for five days, and then the medium was switched to RPMI/B27-insulin containing 12 μM CH. IWP4 and IWP2, which prevent palmitylation of Wnt proteins by porcupine thereby blocking Wnt protein secretion and activity (Chen et al., Nat. Chem. Biol. 5:100-107 (2009)), were used to inhibit Wnt signaling. […] Similar to results obtained with the 19-9-11 ishcat-1 cell line, CH treatment of 19-9-11 cells alone only generated 16% cTNT+ or MF20+ cells after 15 days, while adding 5 μM IWP4 or IWP2 at day 3 increased this to 87% cTNT+ or MF20+ cells. […] In order to achieve fully defined culture conditions, Matrigel® was replaced with a defined peptide acrylate surface (Synthemax) during both hPS cell expansion and differentiation. […] Thus, optimization of canonical WNT signaling via stage-specific addition of small molecule agonists and antagonists produces high yields of functional cardiomyocytes in a completely defined, growth factor free culture system.

## Cc1c[nH]c(-c2cnc(NCCNc3ccc(C#N)cn3)nc2-c2ccc(Cl)cc2Cl)n1 [CH]
  cTNT+ or MF20+ cells: 16%
